Test results taken from ChEMBL document CHEMBL3414535, “Identification and optimization of Escherichia coli GlmU inhibitors: an in silico approach with validation thereof” (Eur J Med Chem, 2015).

Target: Bifunctional protein GlmU (Escherichia coli (strain K12)) (UniProt P0ACC7)
Assay: Inhibition of Escherichia coli GlmU acetyltransferase activity assessed as coenzyme A production using acetyl CoA substrate at 100 uM

Sequence of Bifunctional protein GlmU (Escherichia coli (strain K12)) (P0ACC7 whole entry, looked up): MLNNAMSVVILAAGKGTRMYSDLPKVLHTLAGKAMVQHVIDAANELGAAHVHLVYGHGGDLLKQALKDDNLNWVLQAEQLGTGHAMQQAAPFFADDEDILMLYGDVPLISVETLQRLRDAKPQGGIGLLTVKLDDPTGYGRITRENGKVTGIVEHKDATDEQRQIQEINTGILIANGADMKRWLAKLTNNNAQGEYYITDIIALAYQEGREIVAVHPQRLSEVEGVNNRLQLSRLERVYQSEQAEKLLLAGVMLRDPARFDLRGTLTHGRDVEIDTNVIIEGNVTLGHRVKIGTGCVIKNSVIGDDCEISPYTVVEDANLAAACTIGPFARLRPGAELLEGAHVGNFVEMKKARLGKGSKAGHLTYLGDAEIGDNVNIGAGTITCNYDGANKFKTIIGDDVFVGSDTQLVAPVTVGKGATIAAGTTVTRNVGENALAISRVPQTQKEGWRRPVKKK

inhibition [%] | SMILES
29.2 | CCOc1ccc(OCC)c(NS(=O)(=O)c2ccc3c(c2)N(C)CCO3)c1
20.9 | Cc1cc(SCC(=O)c2ccc(O)cc2O)ncn1
32.3 | O=S(=O)(c1cc(-c2nnc(C3CCCC3)o2)co1)N1CCc2ccccc2C1
28.1 | Cc1nn(-c2ccccc2)c(O)c1/C=N/NC(=O)C(O)c1ccccc1 (centres undefined)
16.8 | O=S(=O)(Nc1cc(F)ccc1F)c1c[nH]c2ncccc12
22.1 | CCn1cc(C(=O)NCc2ccco2)c(S(=O)(=O)N2CCSCC2)n1
18.4 | O=C(CSC1=NS(=O)(=O)c2ccccc2N1)OCc1ccccc1
16.8 | CCOc1ccc(OCC)c(Nc2c(-c3ccccc3)c(=O)c2=O)c1
17.1 | COc1ccc(S(=O)(=O)C(CNC(=O)c2ccccc2)c2ccco2)cc1 (centres undefined)
18.5 | c1cncc(CNc2nnc(-c3nc(C4CC4)no3)c3ccccc23)c1
42 | COc1ccc(OC)c(N(CC(=O)O)S(=O)(=O)c2ccccc2)c1
45.3 | CCOC(=O)COc1ccccc1/C=C1\N=C(SCC)SC1=O
40 | COc1cc(Nc2c(-c3ccccc3)c(=O)c2=O)cc(OC)c1
16.5 | CCOC(=O)c1c(C)[nH]c(C)c1S(=O)(=O)NCC(=O)Nc1cccnc1
15.8 | O=C(Nc1nc(S(=O)(=O)Cc2ccccc2)ns1)c1ccccc1
45.1 | COc1ccc(Cl)cc1N(CC(=O)O)S(=O)(=O)c1ccccc1
20.1 | CCCN1C=NS(=O)(=O)c2cc(C(=O)Nc3ccccc3F)ccc21
9.82 | CCc1ccccc1NS(=O)(=O)c1ccc(-c2ccc(=O)[nH]n2)o1
25.9 | Cc1nc2c(c(SCC(=O)c3ccc(O)cc3O)n1)CCC2
34.4 | Cc1ccc(C)c(NS(=O)(=O)c2ccc(-c3nnc(C(C)C)o3)o2)c1
30.6 | O=S(=O)(NCc1ccccn1)c1ccc(-c2ccno2)o1
28.6 | CC(Sc1nnc(O)nc1O)C(=O)OCc1ccccc1 (centres undefined)

inhibition [%] | SMILES
25.9 | O=S(=O)(Nc1ccc(F)c(F)c1)c1c[nH]c2ncccc12
14.3 | CCOC(=O)c1cc(S(=O)(=O)N(C)CC(=O)Nc2ccc(C)cn2)cn1C
24.6 | CC(=O)Cc1nsc(NC(=O)C2(C)Cc3ccccc3C(=O)O2)n1 (centres undefined)
3.74 | COC(=O)c1cc(S(=O)(=O)Nc2cccc(Cl)c2C)c[nH]1
68.7 | CSc1cccc(NS(=O)(=O)c2cc3c(cc2Cl)NC(=O)CO3)c1
28.4 | O=C(CN1c2cccc3cccc(c23)S1(=O)=O)Nc1ccc(F)c(F)c1
16.2 | CCOC(=O)c1c(S(=O)(=O)NCC(=O)Nc2cccnc2)c(C)n(C)c1C
14.8 | O=S(=O)(Nc1cc(F)cc(F)c1)c1c[nH]c2ncccc12
25.5 | COC(=O)C1CN(C(=O)C(C)Oc2ccccc2F)c2ccccc2O1 (centres undefined)
28.6 | CN1C(C(=O)NCC2CCCO2)=CC(c2ccco2)=NS1(=O)=O (centres undefined)
19.3 | COc1cc(NS(=O)(=O)c2c[nH]c3ncccc23)cc(OC)c1
21.1 | COc1ccccc1NS(=O)(=O)c1cc(-c2cnc(C3CC3)o2)ccc1C
40.6 | COc1ccc(-c2cnc(C)o2)cc1S(=O)(=O)Nc1cccc(Cl)c1
10.3 | CCOC(=O)c1cc(S(=O)(=O)N2CCCC2C(=O)NC(C)C)cn1C (centres undefined)
13.3 | O=S(=O)(c1ccccc1)c1nc(-c2ccsc2)oc1NCC1CCCO1 (centres undefined)
15.2 | CCOC(=O)c1c(S(=O)(=O)NCC(=O)Nc2ccccc2)c(C)n(C)c1C
30.8 | CCOC(=O)c1cc(S(=O)(=O)N2CCCC2C(=O)NC(C)(C)CC)cn1C (centres undefined)
25.1 | O=C(NCCN1CCCC1)C1=C2CCCN2c2ccc(F)cc2S1(=O)=O
7.99 | CCOC(=O)c1cc(S(=O)(=O)N2CCCC2C(=O)N2CCCC2)cn1C (centres undefined)
20.7 | O=S(=O)(c1ccccc1)c1nc(-c2ccco2)oc1NCCCn1ccnc1
5.65 | COC(=O)c1cc(S(=O)(=O)Nc2cccc(SC)c2)c[nH]1
5.22 | COC(=O)c1cc(S(=O)(=O)Nc2ccc(C)cc2Cl)c[nH]1
